# Test system: Saccharomyces cerevisiae ABC16-Green Monster
# Test: growth inhibition at single dose (up to 150 µM), below the 70% cut-off for dose-response; higher = more potent
# Conditions: 18 h; 30 °C; YPD
# Outline: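 Percent growth inhibition is the reported value. Drug-sensitive S. cerevisiae ABC16-Green Monster cultures in log phase (OD600 0.1–0.2), 200 µl per well in 96-well plates, received each library compound once at 150 µM in biological duplicates, with untreated cultures run alongside. Growth was followed by OD600 at 0 h and after 18 h at 30 °C. Dose-response was not done for compounds below 70% in both replicates.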
row,SMILES,growth inhibition at single dose [%]
1,O=C(Nc1cccc(C2=NCCN2)c1)Nc1cccc(C2=NCCN2)c1,< 70
2,CC1=C(C(=O)Nc2ccccc2)C(c2ccco2)C(C#N)=C(SCc2ccccc2Cl)N1 (centres undefined),< 70
3,CO/C=C(/C(=O)OC)c1ccccc1Oc1cc(Oc2ccccc2C#N)ncn1,< 70
4,O=C1N=C(Nc2cccnc2)S/C1=C/c1ccc2ncccc2c1,< 70
5,O=c1cc(NC2CCN(CCCc3ccccc3)CC2)c2cc(Cl)ccc2o1,< 70
6,CC(=O)c1c(C)[nH]c(C(=O)Nc2nc3ccccc3[nH]2)c1C,< 70
7,Nc1nccnc1C(=O)Nc1ccc(C23CC4CC(CC(C4)C2)C3)cc1,< 70
8,COc1ccc(S(=O)(=O)N(Cc2ccc(C(=O)NC3CC3)cc2)C2CC2)cc1OC,< 70
9,COc1cc(NC(=O)COc2ccc3[nH]c4ccccc4c(=O)c3c2)c(OC)cc1Cl,< 70
10,CC(C)(C)c1ccc(C(=O)Nc2cc(F)ccc2F)s1,< 70
11,Cc1cc2ccccc2n1CC(=O)N1CC(C(=O)N2CCCCC2)Oc2ccccc21 (centres undefined),< 70
12,O=C(Nc1ccc(Oc2cc(C(F)(F)F)cc(C(F)(F)F)c2)cc1)Nc1ccc(OC(F)(F)F)cc1,< 70
13,Cc1c(C)n(CC(O)CNC2CCCCC2C)c2ccccc12 (centres undefined),< 70
14,Cc1cc(C)n(-c2nc(-c3ccccc3)cc(N(C)CCO)n2)n1,< 70
15,O=C(Nc1ccccc1)c1cn(-c2ccc3c(c2)OCCO3)nn1,< 70
16,CCC(Sc1nc2ccccc2o1)C(=O)Nc1nnc(C)s1 (centres undefined),< 70
17,COc1ccc(Nc2cc(C)nc(NCc3ccccc3)n2)cc1,< 70
18,CCOc1ccccc1NC(=O)/C=C/c1nnc2c3ccccc3cnn12,< 70
19,N#Cc1ccc(-c2cnc(N)c(-c3ccc(C(N)=O)cc3)n2)cc1,< 70
20,Cc1cc([N+](=O)[O-])cc(S(=O)(=O)N(Cc2ccc(C(=O)NC3CC3)cc2)C2CC2)c1C,< 70
21,O=C(Nc1nc2ccc(Oc3ccccc3)cc2s1)C1=COCCO1,< 70
22,COc1cc(-c2nc(-c3ccc(Sc4ccccc4)cc3)c(-c3ccccc3)[nH]2)cc(OC)c1O,< 70
23,Nc1ncnc2c1ncn2C[C@@H](O)[C@@H](O)C(=O)O,< 70
24,Cc1[nH]c(-c2ccccn2)nc(=O)c1CC(=O)NC1CCCCCCC1,< 70

row,SMILES,growth inhibition at single dose [%]
1,Cc1nc(-c2ccccn2)nc(NCCc2ccc(S(C)(=O)=O)cc2)c1Cl,< 70
2,N#C/C(C(=O)c1ccc([N+](=O)[O-])s1)=C1\Nc2ccccc2S1,< 70
3,COc1ccc(C2c3ccc4ccccc4c3Oc3ncn(CCCn4ccnc4)c(=N)c32)cc1OC (centres undefined),< 70
4,CC(=O)Oc1ccccc1C(=O)Nc1ncc([N+](=O)[O-])s1,< 70
5,Cc1cc(C)n2nc(C(=O)Nc3cc(C(F)(F)F)ccc3N3CCOCC3)nc2n1,< 70
6,COc1ccc(Br)cc1C1Nc2ccc3ccccc3c2C2=C1C(=O)CC(c1ccccc1)C2 (centres undefined),< 70
7,CN(C(=O)CSc1nnc(COc2ccccc2F)n1N)C1CCCCC1,< 70
8,Cc1cccc(NC(=O)c2cc(S(=O)(=O)N(C)c3ccc(F)cc3)ccc2Cl)n1,< 70
9,Nc1nccc2ccc(Oc3ccncc3)cc12,< 70
10,NCCCC(N)(C(=O)O)C(F)F (centres undefined),< 70
11,CCOC(=O)CC(=O)CSc1nnc(-c2ccccc2Cl)n1-c1ccccc1F,< 70
12,COc1ccc2nc(N)nc(C)c2c1,< 70
13,Cc1ccc2oc(-c3cc(NC(=O)Cc4ccccc4)ccc3Cl)nc2c1,< 70
14,Cc1ccc(Oc2c(C)[nH]c(-c3ccccc3)nc2=O)cc1,< 70
15,O=c1cc(CN2CCCCCC2)nc2sccn12,< 70
16,Cc1ccc(-c2cc(C(=O)Nc3cccnc3)c3cc(Br)ccc3n2)cc1,< 70
17,COc1ccc(NC(=O)C2c3ccccc3C(=O)N(CC(C)C)C2c2cccs2)cc1 (centres undefined),< 70
18,c1cncc(NCc2ccc(-c3cc4ccncc4cc3OC3CCNCC3)s2)c1,< 70
19,COc1cccc(Nc2nc(N)c3ccccc3n2)c1,< 70
20,Cc1ccc(C2CC(C(F)(F)F)n3nc(C(=O)N4CCN(C(c5ccccc5)c5ccccc5)CC4)cc3N2)cc1 (centres undefined),< 70
21,CCN(CC)CCn1c(=N)n(CC(O)c2ccc(Cl)c(Cl)c2)c2ccccc21 (centres undefined),< 70
22,Cc1cc(/C=C/C(=O)Nc2nccs2)c(C)n1-c1ccccc1,< 70
23,COc1cccc(Nc2nc(NCCO)c3ccccc3n2)c1,< 70
24,CC(=O)Nc1cccc2c1CCN(c1ncnc3sccc13)C2,< 70

row,SMILES,growth inhibition at single dose [%]
1,CN1CCC(c2cc(-c3ccncc3)c(-c3ccc(F)cc3)[nH]2)CC1,< 70
2,Cc1ccc(NC(=O)Nc2cccc(Cl)c2)cc1F,< 70
3,Cc1cc(N2CCCC2)nc(Nc2ccc(NC(=O)CCc3ccccc3)cc2)n1,< 70
4,CCc1ccccc1-n1c(C)cn2c3c(=O)n(C(C(=O)OC)C(C)C)c(=O)n(C)c3nc12 (centres undefined),< 70
5,Cc1ccn2cc(C(=O)Nc3nnc(CC(C)C)s3)nc2c1,< 70
6,Cn1ccnc1Sc1ncnc2sccc12,< 70
7,CNCCCNc1ccnc2cc(Cl)ccc12,< 70
8,NC(=O)c1cc(NC(=O)c2cccs2)ccc1N1CCCCC1,< 70
9,CC(C)(C)n1nc(-c2ccccc2)c2c(N)ncnc21,< 70
10,Cc1cc(N2CCN(C3CCCC3)CC2)n2c(nc3ccccc32)c1C#N,< 70
11,O=C(Cn1ncc(Cl)c(Cl)c1=O)N1N=C(c2ccco2)CC1c1cccs1 (centres undefined),< 70
12,COc1cc(Br)cc2cc(C(=O)Nc3cccc(C(F)(F)F)c3)c(=O)oc12,< 70
13,O=C(Nc1ccccc1C(=O)Nc1nnc(C(F)(F)F)s1)c1ccccc1,< 70
14,CCCCOC(=O)c1ccc(Nc2cc(C)nc3ccc(OC)cc23)cc1,< 70
15,CCSc1nccc(-c2ccc3c(c2)CCC(C)(C)O3)n1,< 70
16,CC(=O)N(CCN(C(=O)c1ccc(F)cc1)c1ccccc1)c1ccccc1,< 70
17,c1ccc(Oc2ccc(-c3cc(CN4CCOCC4)[nH]n3)cc2)cc1,< 70
18,CC(C)(C)C(=O)Nc1ccc(-c2nc3ncccc3o2)c(Cl)c1,< 70
19,O=C(NC1CCN(c2ccnc3ccccc23)C1)c1cccc(C(F)(F)F)c1 (centres undefined),< 70
20,Cc1c(C)n(Cc2ccc(F)cc2)c2ccc(C(=O)NCc3ccco3)cc12,< 70
21,O=C(Nc1cccc([N+](=O)[O-])c1)c1[nH]nc2ccccc12,< 70
22,CS(=O)(=O)c1ccccc1C(=O)N(Cc1ccccc1)c1ccccc1,< 70
23,C=c1ccccc1=C1NN=C(Nc2ccc(F)c(F)c2F)O1,< 70
24,O=C(Nc1ccc(I)cc1)C1CCN(C(=O)c2ccncc2)CC1,< 70

row,SMILES,growth inhibition at single dose [%]
1,O=C(NCc1ccoc1)N1CCN(Cc2ccc3c(c2)OCO3)CC1,< 70
2,CCc1cccc2c(C(=O)COC(=O)C34CC5CC(CC(O)(C5)C3)C4)c[nH]c12,< 70
3,CNc1snc(C)c1C(=O)N(C)Cc1ccccc1OC(F)(F)F,< 70
4,c1ccc2c(c1)CN(CC1CC1)CC1(CCN(Cc3c[nH]c4cnccc34)CC1)O2,< 70
5,Cc1cc(OCC(=O)Nc2ccc(C(C)C)cc2)n(C)c(=O)c1C#N,< 70
6,COc1ccccc1N1CCN(c2nc(=O)c3c([nH]2)CCC3)CC1,< 70
7,COc1cc(C2=NCCN2)ccc1-n1cc(-c2cccc(C3=NCCN3)c2)nn1,< 70
8,COc1cc(CNC(=O)c2scnc2C)ccc1OC1CCCC1,< 70
9,C#CCNS(=O)(=O)c1ccc(C(=O)Nc2ccccc2O)cc1,< 70
10,CC(=O)Nc1cccc(Oc2ccc(C(=O)Nc3ccc4ccccc4c3)cc2[N+](=O)[O-])c1,< 70
11,CN1CCN(c2nccc3nc(-c4ccc(F)c(F)c4)[nH]c23)CC1,< 70
12,CSC1=NC(=Nc2c(C)cccc2C)C2(CCC(C(C)(C)C)CC2)N1c1ccc(Cl)cc1 (centres undefined),< 70
13,CCC(c1ccccc1)c1nn2c(-c3cccs3)nnc2s1 (centres undefined),< 70
14,c1ccc(Nc2nc(-c3ccc4c(c3)OCCO4)cs2)nc1,< 70
15,Cc1ccc(NC(=O)c2cc3c(s2)CCCCCC3)nc1,< 70
16,COc1ccc(-c2cncc3ccc(C(=O)NCCCn4ccnc4)nc23)cc1,< 70
17,CC(C)(C)c1ccc(NC(=O)c2cnccn2)cc1,< 70
18,O=C(Nc1cccc2ccccc12)N1CCN(c2ncccc2C(F)(F)F)CC1,< 70
19,OC(c1cn2cc(-c3ccccc3)nc2s1)(C(F)(F)F)C(F)(F)F,< 70
20,O=C(CCc1ccccc1)c1ccccc1OCC(O)CN1CCCCC1 (centres undefined),< 70
21,CCOC(=O)CSCc1noc(COc2ccc(Cl)cc2Cl)n1,< 70
22,CCOC(=O)c1sc2ncn(-n3c(C)ccc3C)c(=O)c2c1C,< 70

# Reference: the supplement of paper PMC8837787
